Assay results reported in PMC3434972 (Bioorganic & medicinal chemistry letters, 2011).
Substitutions are numbered along the chain they refer to. Where two headings read alike, the source gives them in different places.

How the values were obtained:
[1] = target: T1, hM1 (Homo sapiens, UniProt P11229); test: hM1 antagonist calcium mobilization assay; type: cell-based; conditions: for fold loss in potency/activity relative to ML012: hM1, versus ML012; for hM1 antagonist activity in words: highest concentration tested 30 μM
T1 sequence (P11229 1-460): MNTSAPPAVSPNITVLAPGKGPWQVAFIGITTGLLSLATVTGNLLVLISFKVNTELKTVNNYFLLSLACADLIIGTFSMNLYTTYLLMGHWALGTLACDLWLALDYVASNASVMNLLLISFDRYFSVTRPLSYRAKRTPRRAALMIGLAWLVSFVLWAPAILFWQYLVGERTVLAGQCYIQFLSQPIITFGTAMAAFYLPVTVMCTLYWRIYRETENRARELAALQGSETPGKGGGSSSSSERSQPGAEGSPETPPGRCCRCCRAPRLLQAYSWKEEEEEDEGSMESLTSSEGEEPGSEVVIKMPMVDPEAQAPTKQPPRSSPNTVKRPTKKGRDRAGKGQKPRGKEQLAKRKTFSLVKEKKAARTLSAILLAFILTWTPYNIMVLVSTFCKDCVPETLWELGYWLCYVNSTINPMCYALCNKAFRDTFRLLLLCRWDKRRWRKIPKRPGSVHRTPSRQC

[2] = target: T2, rM1 (Rattus norvegicus, UniProt P08482); test: rat M1 antagonist calcium mobilization assay; type: cell-based
T2 sequence (P08482 1-460): T1 sequence (P11229 1-460) with A5V, T254S, P309S, R320K, A337G, I413V

[3] = rat pharmacokinetics and CNS exposure; type: in vivo; conditions: dosed orally at 10 mg/kg
[4] = in vitro DMPK prediction of clearance; type: in vitro ADME
[5] = system: rat M1–5 receptors; test: selectivity across the rat mAChRs, calcium mobilization assay; type: cell-based; conditions: Figure 4
[6] = system: contextual freezing; conditions: at doses that reduced seizures; cited from earlier work
[7] = target: T1, hM1; conditions: read-out: IC50 for ML012 previously reported; cited from earlier work
[8] = system: pilocarpine-induced seizures; conditions: rodent models; cited from earlier work

O=C(CCNS(=O)(=O)c1cccc2nsnc12)N1CCN(c2ccccn2)CC1 [Compound 6d]
fold loss in potency/activity relative to ML012 [1]: roughly 14 fold

O=S(=O)(NCCCN1CCN(c2ccncc2)CC1)c1cccc2nsnc12 [Compound 7]
fold loss in potency/activity relative to ML012 [1]: greater than 14 fold

O=C(C(F)CNS(=O)(=O)c1cccc2nonc12)N1CCN(c2ccncc2)CC1 (stereo not shown) [Compound 9]
fold decrease in potency relative to 13b ([1]; hM1, versus 13b): roughly 2 fold

C[C@H](CC(=O)N1CCN(c2ccncc2)CC1)NS(=O)(=O)c1cccc2nonc12 [Compound 10]
hM1 antagonist activity in words [1]: completely inactive

CN(CCC(=O)N1CCN(c2ccncc2)CC1)S(=O)(=O)c1cccc2nsnc12 [Compound 12]
fold loss in potency/activity relative to ML012 [1]: greater than 14 fold

O=C(CCNS(=O)(=O)c1cccc2nonc12)N1CCN(c2ccc(Br)cn2)CC1 [Compound 13a]
fold decrease in activity relative to sulfur analog 6j ([1]; hM1, versus 6j): 3 fold

O=C(CCNS(=O)(=O)c1cccc2nonc12)N1CCN(c2ccncc2)CC1 [Compound 13b]
IC50 [1]: 4.5 µM | fold loss in potency/activity relative to ML012 [1]: 4 fold

O=C(CCNS(=O)(=O)c1cccc2ccccc12)N1CCN(c2ccc(Br)cn2)CC1 [Compound 13i]
hM1 antagonist activity in words [1]: complete loss of activity

O=C(CCNS(=O)(=O)c1cccc2scnc12)N1CCN(c2ccncc2)CC1 [Compound 13j]
hM1 antagonist activity in words [1]: inactive

O=C(CCNS(=O)(=O)c1cccc2ncccc12)N1CCN(c2ccncc2)CC1 [Compound 13l]
EC50 [2]: 180 nM | CNS concentrations / CNS exposure [3]: undetectable | in vitro DMPK prediction of clearance [4]: high clearance | selectivity for the M1 receptor over the M2–5 subtypes [5]: very high selectivity

O=C(CCNS(=O)(=O)c1cccc2nsnc12)N1CCN(c2ccncc2)CC1 [ML012]
EC50 [2]: 240 nM | deficits in contextual freezing [6]: did not induce deficits in contextual freezing | selectivity for the M1 receptor over the M2–5 subtypes [5]: selectively antagonize the M1 mAChR relative to the M2–5 mAChRs | IC50 [7]: 132 nM | effect on pilocarpine-induced seizures [8]: reduced pilocarpine-induced seizures
